Activity calls are given as the source filed them.
Assays:
[1] = target: 14-3-3 protein gamma (Homo sapiens, UniProt P61981); assay: modulators of 14-3-3 gamma client binding – dose response (AID 711); type: functional
[2] = Luminescence Cell-Based Dose Response HTS to Identify Activators of Luciferase Translation or Activity in H4 […] Cells. [Related pubchem assays: 1829 (Project Summary), 1814 (Primary HTS)]; type: functional
[3] = cytotoxicity in KRAS-transformed pancreatic duct cells, primary screen, cell-based, fluorescence, HTS (AID 431); type: functional; conditions: Homo sapiens;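 note: cell line used: HPDE-C7K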
[4] = system: H4; assay: Luminescence Cell-Based Dose Response HTS to Identify Activators of 5'UTR Stem-Loop Driven Prion Protein mRNA Translation in H4 Neuroglioblastoma Cells. [Related pubchem assays: 1829 (Project Summary), 1814 (Primary HTS)]; type: functional; conditions: Homo sapiens
[5] = cytotoxicity in HPDE-C7 cells, cell-based, fluorescence, HTS (AID 430); type: functional; conditions: Homo sapiens
[6] = target: Neuropeptide Y receptor type 2 (Homo sapiens, UniProt P49146); type: functional, cell-based;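 note: HEK293 cells expressing the receptor and a CNG channel; stimulus was NPY near EC95 followed by isoproterenol to raise cAMP; antagonist potency measured as restoring cAMP signal that NPY suppresses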
[7] = target: Neuropeptide Y receptor type 1 (Homo sapiens, UniProt P25929); type: functional;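 note: HEK293 cells with a CNG channel challenged with NPY then isoproterenol; potency as antagonist that reverses NPY suppression of cAMP signal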
[8] = target: Paired box protein Pax-8 (Homo sapiens, UniProt Q06710); assay: inhibitors of PAX8-driven TPO luciferase reporter, dose response, RMG-I cells, cherry-pick (AID 687027); type: functional, cell-based;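 note: luciferase reporter driven by Pax8 target thyroperoxidase promoter measured by SteadyGlo luminescence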
[9] = Luminescent dose response cell-based high throughput screening assay for inhibitors of the Janus kinase 2 mutant JAK2V617F. [Related pubchem assays: 1446 (Primary screen.), 1521 (Confirmation assay.), 1486 (Counter screen.)]; type: functional
[10] = system: Vero; assay: cells; type: functional; conditions: Chlorocebus sabaeus
[11] = target: Melanocortin receptor 4 (Homo sapiens, UniProt P32245); assay: MC4R antagonist potency on cAMP, dose response, cell-based, TR-FRET, biased antagonists (AID 602298); type: functional;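 note: antagonist potency against agonist-stimulated cAMP production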
[12] = target: T1, Streptokinase A (Streptococcus pyogenes serotype M1, UniProt P10520); assay: Absorbance Microorganism-Based Dose Response Follow up to Identify Inhibitors of Streptokinase Expression. [Related pubchem assays: 1677 (Project Summary), 1915, 1914, 1902 (Retest at Dose), 1900 (Counter Screen), 1662 (Primary HTS)]; type: functional, Streptococcus pyogenes M1 GAS
T1 sequence (P10520 whole entry): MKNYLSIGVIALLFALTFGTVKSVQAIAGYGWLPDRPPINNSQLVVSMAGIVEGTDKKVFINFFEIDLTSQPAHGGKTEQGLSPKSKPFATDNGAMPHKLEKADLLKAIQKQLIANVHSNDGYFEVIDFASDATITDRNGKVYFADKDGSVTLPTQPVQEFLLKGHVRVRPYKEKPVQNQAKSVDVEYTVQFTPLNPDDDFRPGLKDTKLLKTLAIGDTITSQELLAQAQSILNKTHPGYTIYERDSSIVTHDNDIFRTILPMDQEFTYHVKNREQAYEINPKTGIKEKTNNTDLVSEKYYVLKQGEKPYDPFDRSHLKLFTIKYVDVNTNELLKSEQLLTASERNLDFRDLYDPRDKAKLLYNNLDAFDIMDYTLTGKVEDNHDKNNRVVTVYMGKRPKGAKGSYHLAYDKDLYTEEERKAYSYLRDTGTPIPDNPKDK

[13] = system: Streptococcus; assay: Streptococcus pyogenes growth inhibition counter-screen, dose response, counter-screen for streptokinase expression inhibitor project, luminescence, BacTiter-Glo, strain UMAA2166 (AID 2477); type: functional, organism-based
[14] = nonselective inhibitors of cellular cAMP signaling, dose response, counter-screen for MC4R biased antagonist project, cell-based, TR-FRET cAMP detection (AID 602305); type: functional;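 note: U2OS cells stimulated with forskolin near its EC80 as the cAMP inducer; potency is for inhibition of forskolin-stimulated cAMP signaling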
[15] = Luminescence-based dose response cell-based high throughput screening assay for cytotoxic compounds using the IEC-6 intestinal epithelial cell line. [Related pubchem assays: 1858 (Summary AID.), 1825 (Counterscreen.), 1907 (Confirmation screen.)]; type: functional
[16] = THP-1 cell cytotoxicity, dose response, cytotoxicity control for non-replicating M. tuberculosis project (AID 489025); type: functional
[17] = microbe, parasite or virus in culture; type: functional; conditions: Mycobacterium tuberculosis
[18] = HepG2 cell cytotoxicity, dose response, cytotoxicity control for non-replicating M. tuberculosis project (AID 489018); type: functional; conditions: Mycobacterium tuberculosis
[19] = Vero E6 cell cytotoxicity, dose response, cytotoxicity control for non-replicating M. tuberculosis project, secondary assay (AID 492998); type: functional, VeroE6; conditions: Vero C1008
[20] = Fluorescence-based cell-based high throughput dose response assay for inhibitors of the interaction of nucleotide-binding oligomerization domain containing 2 (NOD2) and the receptor-interacting serine-threonine kinase 2 (RIPK2).; type: functional; conditions: Homo sapiens
[21] = target: T2, Rac GTPase-activating protein 1 (Homo sapiens, UniProt Q9H0H5); assay: MgcRacGAP GTPase-activating activity inhibitors, confirmation, biochemical, ADP Hunter fluorescence, primary and confirmatory (AID 624330); type: functional
T2 sequence (Q9H0H5 whole entry): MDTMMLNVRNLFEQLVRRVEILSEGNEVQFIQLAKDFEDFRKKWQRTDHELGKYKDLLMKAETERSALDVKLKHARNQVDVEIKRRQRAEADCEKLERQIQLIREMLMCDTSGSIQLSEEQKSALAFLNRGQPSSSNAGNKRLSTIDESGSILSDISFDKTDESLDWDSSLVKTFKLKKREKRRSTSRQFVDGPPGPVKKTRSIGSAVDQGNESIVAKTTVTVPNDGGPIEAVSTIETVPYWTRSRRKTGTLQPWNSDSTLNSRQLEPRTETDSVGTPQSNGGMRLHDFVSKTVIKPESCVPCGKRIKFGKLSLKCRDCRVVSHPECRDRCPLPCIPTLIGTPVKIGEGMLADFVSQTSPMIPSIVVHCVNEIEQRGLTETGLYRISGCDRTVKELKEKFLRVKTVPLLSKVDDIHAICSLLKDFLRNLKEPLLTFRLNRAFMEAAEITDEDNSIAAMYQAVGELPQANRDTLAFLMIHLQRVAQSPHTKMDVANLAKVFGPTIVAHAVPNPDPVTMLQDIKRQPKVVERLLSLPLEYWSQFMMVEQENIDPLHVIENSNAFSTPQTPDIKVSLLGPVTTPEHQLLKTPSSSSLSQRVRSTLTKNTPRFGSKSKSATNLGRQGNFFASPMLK

[22] = system: INS1; assay: beta cell apoptosis inhibitors, cytokine rescue, dose response, luminescence, retest (AID 449756); type: functional, cell-based; conditions: Rattus norvegicus;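 note: cell death triggered by IL-1 beta plus TNF-alpha plus IFN-gamma mixture; protective hits raise ATP signal compared with cytokine alone wells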
[23] = target: G-protein coupled receptor 55 (Homo sapiens, UniProt Q9Y2T6); assay: GPR55 antagonists blocking LPI-driven arrestin recruitment, primary screen, imaging, U2OS, beta-arrestin-GFP, LPI agonist (AID 2013); type: functional;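 note: antagonist potency measured as reduced agonist-driven arrestin aggregation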
[24] = target: Photoreceptor-specific nuclear receptor (Homo sapiens, UniProt Q9Y5X4); type: functional, cell-based;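 note: CHO-S cells with Gal4-NCOR and VP16-NR2E3 two-hybrid luciferase reporter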
[25] = cells; type: functional
[26] = HeLa cell cytotoxicity, dose response, cytotoxicity control for MgcRacGAP inhibitor project (AID 624300); type: functional
[27] = target: Dual specificity tyrosine-phosphorylation-regulated kinase 1A (Rattus norvegicus, UniProt Q63470); type: biochemical, Homo sapiens
[28] = target: Protein-tyrosine kinase 2-beta (Homo sapiens, UniProt Q14289);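 note: potency of inhibitors of PYK2 kinase phosphorylation of poly-GT substrate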
[29] = target: T3, Short transient receptor potential channel 4 (Mus musculus, UniProt Q9QUQ5); assay: mouse TRPC4 channel inhibitors, dose response, cell-based, HEK293 TRPC4/mu-opioid, Fluo-4 calcium (AID 434942); type: functional;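 note: potency of inhibitors blocking the TRPC4 calcium response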
T3 sequence (Q9QUQ5 whole entry): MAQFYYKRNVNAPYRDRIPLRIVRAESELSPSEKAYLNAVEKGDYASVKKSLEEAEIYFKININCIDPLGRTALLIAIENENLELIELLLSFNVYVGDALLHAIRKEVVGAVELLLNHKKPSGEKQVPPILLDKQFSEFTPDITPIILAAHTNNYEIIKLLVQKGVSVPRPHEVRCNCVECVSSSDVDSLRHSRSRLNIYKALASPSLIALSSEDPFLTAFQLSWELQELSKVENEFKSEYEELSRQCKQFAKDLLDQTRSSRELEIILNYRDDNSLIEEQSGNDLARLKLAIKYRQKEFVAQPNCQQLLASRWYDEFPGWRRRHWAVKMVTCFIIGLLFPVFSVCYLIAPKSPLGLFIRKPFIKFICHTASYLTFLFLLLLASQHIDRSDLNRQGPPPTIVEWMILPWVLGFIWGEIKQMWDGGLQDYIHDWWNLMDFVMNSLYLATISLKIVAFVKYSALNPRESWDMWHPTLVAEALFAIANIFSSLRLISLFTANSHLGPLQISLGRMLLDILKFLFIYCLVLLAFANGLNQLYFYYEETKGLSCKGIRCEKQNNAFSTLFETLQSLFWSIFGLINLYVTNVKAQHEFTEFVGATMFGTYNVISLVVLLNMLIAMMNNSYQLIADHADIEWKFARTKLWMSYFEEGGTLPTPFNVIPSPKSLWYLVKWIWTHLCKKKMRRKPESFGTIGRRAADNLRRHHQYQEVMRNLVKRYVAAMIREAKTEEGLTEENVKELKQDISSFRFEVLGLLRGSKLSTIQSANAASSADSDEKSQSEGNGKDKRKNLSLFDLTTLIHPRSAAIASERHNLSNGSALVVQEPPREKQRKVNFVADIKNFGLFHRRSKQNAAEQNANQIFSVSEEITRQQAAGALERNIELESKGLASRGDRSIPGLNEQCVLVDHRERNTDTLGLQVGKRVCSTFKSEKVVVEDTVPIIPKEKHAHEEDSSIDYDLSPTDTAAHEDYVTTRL

[30] = system: HEK293; assay: inhibitors of LMP1-driven NF-kB reporter, dose response, cell-based, HEK293, luciferase, cherry-pick (AID 588343); type: functional; conditions: Homo sapiens
[31] = target: Mitogen-activated protein kinase 10 (Homo sapiens, UniProt P53779); assay: Dose response biochemical screening assay for inhibitors of c-Jun N-Terminal Kinase 3 (JNK3). [Related pubchem assays: 746 ]
Mitogen-activated protein kinase 10, sequence (P53779 whole entry): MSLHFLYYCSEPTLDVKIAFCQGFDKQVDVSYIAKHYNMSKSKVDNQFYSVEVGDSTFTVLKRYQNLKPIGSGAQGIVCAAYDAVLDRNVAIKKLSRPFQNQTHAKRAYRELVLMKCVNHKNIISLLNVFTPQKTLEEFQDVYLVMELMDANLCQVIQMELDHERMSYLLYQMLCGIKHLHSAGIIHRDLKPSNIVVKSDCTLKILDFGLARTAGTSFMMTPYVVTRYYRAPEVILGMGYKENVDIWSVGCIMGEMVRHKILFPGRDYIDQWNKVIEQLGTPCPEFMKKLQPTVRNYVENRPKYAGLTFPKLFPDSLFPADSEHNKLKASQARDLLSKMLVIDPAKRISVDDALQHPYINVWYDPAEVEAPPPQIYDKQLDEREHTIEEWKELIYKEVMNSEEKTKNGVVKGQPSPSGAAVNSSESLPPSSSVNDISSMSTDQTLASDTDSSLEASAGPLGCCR

Paired box protein Pax-8, sequence (Q06710 whole entry): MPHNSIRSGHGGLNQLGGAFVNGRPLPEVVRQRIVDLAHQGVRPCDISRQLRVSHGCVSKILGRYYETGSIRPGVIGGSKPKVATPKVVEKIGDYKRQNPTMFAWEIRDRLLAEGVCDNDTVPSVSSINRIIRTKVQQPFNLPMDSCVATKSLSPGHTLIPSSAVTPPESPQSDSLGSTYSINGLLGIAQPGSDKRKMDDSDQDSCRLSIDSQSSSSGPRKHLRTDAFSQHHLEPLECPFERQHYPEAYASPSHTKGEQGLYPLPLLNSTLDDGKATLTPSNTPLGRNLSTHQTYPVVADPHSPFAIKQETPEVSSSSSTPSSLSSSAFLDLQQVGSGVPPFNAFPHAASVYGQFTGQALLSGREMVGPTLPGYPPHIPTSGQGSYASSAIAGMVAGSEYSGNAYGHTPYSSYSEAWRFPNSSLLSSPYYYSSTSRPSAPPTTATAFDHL
14-3-3 protein gamma, sequence (P61981 whole entry): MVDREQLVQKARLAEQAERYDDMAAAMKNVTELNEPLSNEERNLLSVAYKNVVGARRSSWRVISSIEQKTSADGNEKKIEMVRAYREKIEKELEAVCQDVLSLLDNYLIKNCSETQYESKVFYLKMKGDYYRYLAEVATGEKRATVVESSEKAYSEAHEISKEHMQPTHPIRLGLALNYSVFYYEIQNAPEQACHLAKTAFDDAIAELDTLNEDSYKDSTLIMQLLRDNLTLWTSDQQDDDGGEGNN
Photoreceptor-specific nuclear receptor, sequence (Q9Y5X4 whole entry, the tested form may be a part): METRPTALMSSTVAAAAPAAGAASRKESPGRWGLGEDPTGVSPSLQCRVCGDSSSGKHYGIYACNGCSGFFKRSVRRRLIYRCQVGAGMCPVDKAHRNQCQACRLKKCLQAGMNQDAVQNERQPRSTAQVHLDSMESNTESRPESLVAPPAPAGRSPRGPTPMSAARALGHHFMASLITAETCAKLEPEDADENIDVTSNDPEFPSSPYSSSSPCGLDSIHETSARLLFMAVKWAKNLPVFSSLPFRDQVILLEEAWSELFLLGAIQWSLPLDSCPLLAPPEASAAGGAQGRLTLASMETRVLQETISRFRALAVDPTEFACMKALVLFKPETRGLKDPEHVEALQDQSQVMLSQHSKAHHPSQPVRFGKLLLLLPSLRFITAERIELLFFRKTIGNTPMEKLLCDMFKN
Melanocortin receptor 4, sequence (P32245 whole entry): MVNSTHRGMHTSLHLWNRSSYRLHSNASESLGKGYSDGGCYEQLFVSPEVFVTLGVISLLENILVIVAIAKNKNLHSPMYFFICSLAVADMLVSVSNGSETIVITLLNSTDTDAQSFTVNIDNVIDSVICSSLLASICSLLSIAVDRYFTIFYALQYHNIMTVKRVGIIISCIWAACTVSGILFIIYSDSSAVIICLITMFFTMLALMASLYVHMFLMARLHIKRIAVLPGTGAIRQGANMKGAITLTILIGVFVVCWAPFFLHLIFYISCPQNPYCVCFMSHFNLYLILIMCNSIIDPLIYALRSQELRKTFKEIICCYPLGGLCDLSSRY
Protein-tyrosine kinase 2-beta, sequence (Q14289 whole entry): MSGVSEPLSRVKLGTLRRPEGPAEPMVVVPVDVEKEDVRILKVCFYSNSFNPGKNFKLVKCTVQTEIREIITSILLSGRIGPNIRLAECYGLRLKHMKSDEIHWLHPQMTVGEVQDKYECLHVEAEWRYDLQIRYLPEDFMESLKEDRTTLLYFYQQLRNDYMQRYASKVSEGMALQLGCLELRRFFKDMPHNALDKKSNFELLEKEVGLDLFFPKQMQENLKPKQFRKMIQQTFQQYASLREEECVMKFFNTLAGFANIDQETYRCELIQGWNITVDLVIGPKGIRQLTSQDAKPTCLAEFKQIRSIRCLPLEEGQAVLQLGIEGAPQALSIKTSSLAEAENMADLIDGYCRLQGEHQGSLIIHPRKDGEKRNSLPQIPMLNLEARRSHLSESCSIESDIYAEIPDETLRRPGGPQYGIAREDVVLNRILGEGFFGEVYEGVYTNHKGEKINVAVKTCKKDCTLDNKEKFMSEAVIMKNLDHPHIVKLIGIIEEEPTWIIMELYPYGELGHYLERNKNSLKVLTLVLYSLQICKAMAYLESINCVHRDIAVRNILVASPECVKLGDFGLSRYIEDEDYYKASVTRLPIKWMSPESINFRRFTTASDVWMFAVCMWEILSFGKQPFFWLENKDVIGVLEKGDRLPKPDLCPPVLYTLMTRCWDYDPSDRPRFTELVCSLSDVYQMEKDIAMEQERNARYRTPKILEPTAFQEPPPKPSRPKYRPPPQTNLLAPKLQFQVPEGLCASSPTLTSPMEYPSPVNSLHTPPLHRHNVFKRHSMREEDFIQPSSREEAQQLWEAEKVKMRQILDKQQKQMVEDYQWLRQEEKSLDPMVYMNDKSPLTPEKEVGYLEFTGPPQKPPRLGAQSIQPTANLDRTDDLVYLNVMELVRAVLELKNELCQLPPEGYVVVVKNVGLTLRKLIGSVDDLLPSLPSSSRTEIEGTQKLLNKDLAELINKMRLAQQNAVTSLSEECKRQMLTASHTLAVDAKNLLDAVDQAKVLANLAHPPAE
Neuropeptide Y receptor type 1, sequence (P25929 whole entry): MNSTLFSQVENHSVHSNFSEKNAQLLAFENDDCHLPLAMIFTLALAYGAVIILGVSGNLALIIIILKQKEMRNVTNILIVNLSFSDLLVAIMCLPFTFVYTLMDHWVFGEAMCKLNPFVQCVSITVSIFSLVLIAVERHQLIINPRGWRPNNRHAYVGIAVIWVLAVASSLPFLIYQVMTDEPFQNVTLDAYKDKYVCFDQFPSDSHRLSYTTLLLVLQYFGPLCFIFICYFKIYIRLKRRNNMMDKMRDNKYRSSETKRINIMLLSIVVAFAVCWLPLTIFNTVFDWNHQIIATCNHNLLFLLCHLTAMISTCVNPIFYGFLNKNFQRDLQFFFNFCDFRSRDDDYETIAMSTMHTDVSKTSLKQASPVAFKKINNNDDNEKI
Neuropeptide Y receptor type 2, sequence (P49146 whole entry): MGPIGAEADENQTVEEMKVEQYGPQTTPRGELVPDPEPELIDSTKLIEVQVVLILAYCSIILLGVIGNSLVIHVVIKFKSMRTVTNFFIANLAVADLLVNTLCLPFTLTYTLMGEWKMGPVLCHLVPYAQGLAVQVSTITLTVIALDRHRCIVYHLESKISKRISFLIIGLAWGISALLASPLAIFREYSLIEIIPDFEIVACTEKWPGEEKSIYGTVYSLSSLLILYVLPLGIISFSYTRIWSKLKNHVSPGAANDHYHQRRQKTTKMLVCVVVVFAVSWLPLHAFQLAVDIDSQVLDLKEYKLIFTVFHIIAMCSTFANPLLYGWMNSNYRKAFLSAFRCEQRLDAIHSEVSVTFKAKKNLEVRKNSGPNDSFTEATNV
G-protein coupled receptor 55, sequence (Q9Y2T6 whole entry, the tested form may be a part): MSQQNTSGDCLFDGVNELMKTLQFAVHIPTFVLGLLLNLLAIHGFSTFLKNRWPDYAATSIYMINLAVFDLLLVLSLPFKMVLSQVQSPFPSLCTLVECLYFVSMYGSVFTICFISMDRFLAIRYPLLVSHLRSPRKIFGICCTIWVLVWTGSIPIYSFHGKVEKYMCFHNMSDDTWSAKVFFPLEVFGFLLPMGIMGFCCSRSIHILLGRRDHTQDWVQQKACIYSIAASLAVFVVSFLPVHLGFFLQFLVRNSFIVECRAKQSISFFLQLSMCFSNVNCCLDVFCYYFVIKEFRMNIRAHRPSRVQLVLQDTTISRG

Cc1csc(NC(=O)CSc2nsc(SCC(=O)Nc3nc(C)cs3)c2C#N)n1
> 120 µM (not active): EC50 [4]
active: EC50 [2] 1.86 µM | EC50 [3] 11 µM | EC50 [5] 12.4 µM
> 50 µM (not active): IC50 [1]

Cc1cccc(NC(S)=NN=C(S)NCc2ccccc2)c1
> 35 µM (not active): IC50 [6] | IC50 [7]

Cc1nc2ccccc2c(O)c1C(=O)/C=C/c1ccccc1
active: AC50 [8] 6.93 µM | IC50 [9] 1.71 µM | CC50 [10] 7.78 µM

Cc1ccc(Sc2ccc(NC(=O)c3ccc(F)cc3)cc2C#N)cc1
inactive: IC50 [11] > 64.6 µM | IC50 [14] > 64.6 µM
> 500 µM (not active): EC50 [12] | EC50 [13]

CN1C2CCC1/C(=C/c1ccccn1)C(=O)/C2=C\c1ccccn1
active: IC50 [15] 1.76 µM | CC50 [16] 0.894 µM | CC50 [17] 1.69 µM | CC50 [18] 1.49 µM | AC50 [8] 0.852 µM | CC50 [19] 1.06 µM | IC50 [20] 2.58 µM | IC50 [21] 62.5 µM | AC50 [22] 1.59 µM | IC50 [23] 3.25 µM | IC50 [24] 1.73 µM | IC50 [25] 7.83 µM | CC50 [26] 12.5 µM

COC(=O)c1cccc2c1-c1ccccc1/C2=N/O
active: AC50 [27] 0.434 µM | IC50 [28] 6.71 µM | EC50 [29] 2.99 µM | AC50 [30] 28 µM | IC50 [31] 8.81 µM

— ChEMBL document CHEMBL1201862, “PubChem BioAssay data set” (2004)
